Results on 31 molecules are retold here after patent publication US8481016B2, “Method for inhibition of potential-dependent cation channel” (Kao Corporation, priority 2010, dated 2013).

In assay [1] the test system is potential-dependent cation channel of isolated olfactory cells. Briefly: Test for measuring potential-dependent cation channel activity (whole-cell recording, inward current on depolarization). Type of assay: cell-based, Japanese fire belly newt (Cynops pyrrhogaster). The following applies: for Inhibition ratio (%) (inward current suppression ratio): depolarization -90 mV to -20 mV, newt olfactory cells; for Channel suppression ratio (inward current suppression ratio): Reference Example, concentration not given. On the procedure: 1. Isolation of Olfactory Cells
To briefly explain the method of isolation, each newt which had been hibernated in ice-water was double-pithed, and the cranium was cut open to remove olfactory mucosa. The removed olfactory mucosa was incubated in a 0.1% collagenase solution at 37° C. for 5 minutes, and collagenase was washed off. Subsequently, the mucosal tissue was crushed by means of a glass pipette to thereby isolate cells. As the normal Ringer's solution, a solution of 110 mM NaCl, 3.7 mM KCl, 3 mM CaCl2, 1 mM MgCl2, 15 mM glucose, 1 mM sodium pyruvate, 10 mM HEPES, and 0.001% (w/v) Phenol Red, at pH 7.4 (adjusted with NaOH), was used.
2. Measurement of Electrical Activity [A. Setting] […] A borosilicate glass capillary (diameter: 1.2 mm) was used as the electrode, and the electrode was produced using a puller for electrode fabrication (P-97, Sutter Instrument Co.) (electrode resistance: approximately 6.0 MΩ). An electrode filling solution and a silver-silver chloride wire were inserted into the electrode, the silver-silver chloride wire was connected to a patch clamp amplifier (EPC10, HEKA), and thus fixation of the membrane potential and depolarization simulation were performed. […] The recording of the membrane current was performed using a computer (IBM-compatible) connected to the patch clamp amplifier (sampling frequency: 1 kHz), and Patch Master software (HEKA) was used for the measurement and analysis. The addition (spraying) of a test substance was carried out using a pressure controller.
[B. Procedure] In order to investigate the effect of each of the test substances described above (see Table 1) on the potential-dependent cation channel activity, the membrane potential of the isolated olfactory cells was fixed at −90 mV, and the membrane potential was depolarized to −20 mV for 20 milliseconds at an interval of 200 milliseconds. The peak intensity of the inward current produced immediately after depolarization (FIG. 1. |a|=[Inward current value produced immediately after depolarization]−[baseline value]) was measured. While depolarization stimulation was continuously repeated, the test substance was adjusted to the various concentrations indicated in Table 1 using normal Ringer's solution, and the mixture was added to the olfactory cells by spraying the mixture (for 650 milliseconds, pressure: 100 kPa) through a glass pipette (tip diameter: 1 μm) that was placed such that the tip of the pipette was located in the vicinity (10 μm) of the olfactory cells . The change in the inward current (FIG. 1, |b|=[Inward current value when the peak intensity was most suppressed]−[baseline value]) resulting from the spraying was investigated. This spraying was carried out continuous for 5 times. Furthermore, the average value A of the peak intensities (a) of the inward current produced by the depolarization immediately before the addition of an extract, and the average value B of the peak intensities (b) of the inward current produced by the depolarization immediately after the addition of an extract were calculated.
The CNG channel current can be easily distinguished from the potential-dependent channel current, in terms of the intensity, peak shape, duration and the like.
The “inward current suppression ratio (%)” was calculated from the “B: average value of the inward current value (b) when the peak intensity was most suppressed” and the “A: average value of the inward current value (a) produced immediately after the depolarization immediately before the addition of an extract,” as shown in the following formula.

Assay [2] is described as follows: Olfaction masking test by sensory evaluation, hexanoic acid as malodorous substance. Type of assay: in vivo, human beings. The following applies: 10 panelists, hexanoic acid 10%, 20 μL, same cotton ball. The protocol:
An olfaction masking test based on sensory evaluation was carried out with 10 panelists. […] The cotton ball was placed in a 50-mL container, and the malodorous substance was volatilized overnight at room temperature.
The evaluation was carried out such that each panelist smelled the odor in the container, and determined the strength of masking of hexanoic acid by the addition of the adamantane derivatives. The intensity of odor of simple hexanoic acid was set to 5.0, which is an intermediate point among the 21 grades of evaluation criteria (0: no odor, 10: strong odor).

Assay [3] can be described thus: Sensory evaluation olfaction masking test, isovaleric acid as malodorous substance. Type of assay: in vivo. Particulars: 20 panelists; isovaleric acid 1%, 2 μL; test solution 0.1%, 4 μL; six-grade score 0 (masking not achieved) to 5 (perfect masking).
Experimental: [Sensory evaluation test]
An olfaction masking test based on sensory evaluation was carried out with 20 panelists.
2 μL of the malodorous substance and 4 μL of a test solution of each of the test compounds indicated in Table 3 at a concentration of 0.1% were impregnated into separate cotton balls (diameter: 1 cm), and the substances were volatilized for 12 hours at room temperature in each of separate 50-mL injection syringes. The isovaleric acid and test compound volatilized in the syringe were injected into a PP container (capacity: 500 mL) with a cap and were mixed in the container.
The evaluation was carried out such that each panelist slightly opened the cap of the PP container and smelled the odor in the container, and the panelist determined the masking strength for the odor of isovaleric acid.
The evaluation of the masking strength was carried out based on the following six-grade masking scores, based on a comparison with the intensity of odor in a PP container to which only volatilized isovaleric acid had been injected.
0: Masking is not achieved.
1: A very slight masking effect is recognized.
2: A slight masking effect is recognized.
4: Masking is almost achieved.
5: Perfect masking is achieved.

For the molecule `NCC12CC3CC(CC(C3)C1)C2` [Example 6, 1-Adamantane methylamine], the “Inhibition ratio (%) (inward current suppression ratio)” value (shortened to “Inhibition ratio (%)”) in assay [1] (evaluation concentration 0.01%) stood at 54.5%. Also, in assay [2] (test solution 50%), the “Hexanoic acid odor intensity suppression ratio (%)” value was found to be 78%.
As to `CCOC(=O)C12CCCC1C1CCC2C1` (centres unmarked) [FRUIT ATE], the “Channel suppression ratio (inward current suppression ratio)” value (“Channel suppression ratio” below) in assay [1] came to 11.6%.
Same read-out and setting: the result for `COc1ccc(C=O)cc1` [ANIS ALDEHYDE] reads 89.3%; that for `CC(=O)OCCC(C)C` [iso-AMYL ACETATE], 92.0%.
`CC=CC(=O)C1=C(C)CCCC1(C)C` [b-DAMASCONE]: the “Channel suppression ratio” value in assay [1] is on record as 56.1%. Further, the Masking score in assay [3] stood at 2.4.
On to `CC12CC3CC(C1)CC(C)(C3)C2` [Comparative Example 2, 1,3-Dimethyladamantane], for which, in assay [1] (evaluation concentration 0.01%), the “Inhibition ratio (%)” value turned out to be 0%.
Turning to `CC(C)=CCCC(C)=CC=O` [CIT RAL], the “Channel suppression ratio” value in assay [1] was determined as 110.6%.
On the same count and under the same terms, the result for `CC12CCC(CC1)C(C)(C)O2` [1,8-Cineol] reads 46.5%; that for `CC/C=C\CCO` [cis-3-HEXENOL], 78.7%.
On to `O=Cc1ccccc1` [BENZALDEHYDE], for which, in assay [1], the “Channel suppression ratio” value worked out at 95.4%.
Regarding `CC(C=O)Cc1ccc(C(C)(C)C)cc1` (centres unmarked) [LILIAL], the “Channel suppression ratio” value in assay [1] turned out to be 57.9%.
Regarding `O=C(O)CC12CC3CC(CC(C3)C1)C2` [Example 8, 1-Adamantane acetic acid], in assay [1] (evaluation concentration 0.04%), the “Inhibition ratio (%)” value was 82.5%. The “Hexanoic acid odor intensity suppression ratio (%)” value in assay [2] (test solution 25%) came to 32%.
On to `CC1=CC(C)C(C=O)CC1` (centres unmarked) [TRIPLAL], for which the “Channel suppression ratio” value in assay [1] came out at 79.9%.
Turning to `OCCC12CC3CC(CC(C3)C1)C2` [Example 2, 1-Adamantane ethanol], the “Inhibition ratio (%)” value in assay [1] (evaluation concentration 0.04%) is 63.4%.
With `CCOC(=O)C(C)C1CCCCC1` (centres unmarked) [POIRENATE], in assay [1], the “Channel suppression ratio” value is reported as 48.7%.
On the same count and under the same terms, the result for `C=CC(C)(O)CCC=C(C)C` (centres unmarked) [Linalool] reads 106.5%.
Consider `C1C2CC3CC1CC(C2)C3` [Comparative Example 1, Adamantane], for which the “Inhibition ratio (%)” value in assay [1] (evaluation concentration 0.04%) is given as 10.9%.
Turning to `CC(=O)C12CC3CC(CC(C3)C1)C2` [Example 7, 1-Adamantylmethyl ketone], the “Inhibition ratio (%)” value in assay [1] (evaluation concentration 0.01%) is given as 32%.
As for `C=CC(C)(CCC=C(C)C)OC(C)=O` (centres unmarked) [LINALYL ACETATE], the “Channel suppression ratio” value in assay [1] is on record as 43.3%.
As for `CC(=O)OC1CCCCC1C(C)(C)C` (centres unmarked) [o-t-B.C.H.A], in assay [1], the “Channel suppression ratio” value stood at 23.8%.
Take `CCC(O)COC1CCCCC1C(C)(C)C` (centres unmarked) [AMBER CORE]: the “Channel suppression ratio” value in assay [1] was 27.1%.
As for `CC(=O)NC12CC3CC(CC(C3)C1)C2` [Example 10, 1-Acetamidoadamantane], the “Inhibition ratio (%)” value in assay [1] (evaluation concentration 0.01%) was determined as 40.6%.
In the case of `CC12CC3CC(C)(C1)CC(CO)(C3)C2` [Example 5, 3,5-Dimethyladamantane-1-methanol], in assay [1] (evaluation concentration 0.01%), the “Inhibition ratio (%)” value turned out to be 59.9%. In addition, in assay [2] (test solution 50%), the “Hexanoic acid odor intensity suppression ratio (%)” value was determined as 28%.
On to `CC(C)=CCC/C(C)=C/CO` [GERANIOL], for which the “Channel suppression ratio” value in assay [1] stood at 90.1%.
Turning to `O=C(OCc1ccccc1)c1ccccc1` [BENTHYL BENZOATE], the “Channel suppression ratio” value in assay [1] stood at 10.7%.
The same measure, in the same setting: then `CC(C)(O)CCCC1=CCC(C=O)CC1` (centres unmarked) [LYRAL], with 35.7%.
As to `CC(N)C12CC3CC(CC(C3)C1)C2.Cl` (centres unmarked) [Example 11], in assay [1] (evaluation concentration 0.01%), the “Inhibition ratio (%)” value is 78.9%.
`OCCc1ccccc1` [PHENYL ETHYL ALCOHOL]: the “Channel suppression ratio” value in assay [1] worked out at 82.6%.
The same measure, in the same setting: then `C=CC(C)CCCC(C)(C)O` (centres unmarked) [DIHYDRO MYRCENOL], with 109.0%.
As for `CCOC(=O)CC(=O)C12CC3CC(CC(C3)C1)C2` [Example 9, Ethyl-3-(1-adamantyl)-3-oxopropionate], the “Inhibition ratio (%)” value in assay [1] (evaluation concentration 0.01%) stood at 45.5%.
As to `OC12CC3CC(CC(C3)C1)C2` [Example 1, 1-Adamantanol], the “Inhibition ratio (%)” value in assay [1] (evaluation concentration 0.04%) is given as 72.4%.
